According to US6852759B2, “Process for the synthesis of trans-alkenoic acids, use thereof” (priority 2002, dated 2005):
Read-outs that look alike come from different tables or passages of the source. Marks after values point to notes of the source that are not given here.

How the values were obtained:
[1] = system: CCl4 induced hepatic injury in rats; experiment: Hepatoprotective activity, curative study, CCl4; assay type: in vivo; settings: TCA alone 100 mg/kg p.o., no CCl4, curative study
[2] = system: acetaminophen (APAP) in mice; experiment: Hepatoprotective activity, prophylactic study, acetaminophen (APAP) after diethyl-ether; assay type: in vivo
[3] = system: acetaminophen (APAP) in mice; experiment: Hepatoprotective activity, curative study, acetaminophen (APAP) after diethyl-ether; assay type: in vivo
[4] = system: CCl4 administration in mice
[5] = 12.5 mg/kg p.o. + APAP, prophylactic
[6] = 25 mg/kg p.o. + APAP, prophylactic
[7] = 50 mg/kg p.o. + APAP, prophylactic
[8] = 100 mg/kg p.o. + APAP, prophylactic
[9] = TCA alone 100 mg/kg p.o., no APAP, prophylactic study
[10] = 12.5 mg/kg p.o. + APAP, curative
[11] = 100 mg/kg p.o. + APAP, curative
[12] = TCA alone 100 mg/kg p.o., no APAP, curative study
[13] = 12.5 mg/kg p.o. 1 h before CCl4, mice
[14] = 25 mg/kg p.o. 1 h before CCl4, mice
[15] = 50 mg/kg p.o. 1 h before CCl4, mice
[16] = 100 mg/kg p.o. 1 h before CCl4, mice

CCCCCCCC/C=C/CCCCCCCCCCCCCC(=O)O [TCA, t-Tetracos-15-enoic acid]
Serum ALP [1]: 25.84 ± 2.32 μmole of p-nitrophenol formed/min/L | Serum Bilirubin [1]: 0.16 ± 0.02 mg % | Serum GOT [1]: 82.13 ± 10.59 Units | Serum GPT [1]: 92.18 ± 15.75 Units | Serum Triglycerides [1]: 6.98 ± 0.86 mg % | Serum ALP [2, 5]: 50.41 ± 3.07 μmole of p-nitrophenel formed/min/L | Serum ALP, hepatoprotective activity percent [2, 5]: (21.27 ± 9.50) percent | Serum GOT [2, 5]: 1079.43 ± 98.66 Units | Serum GOT, hepatoprotective activity percent [2, 5]: (25.66 ± 7.72) percent | Serum GPT [2, 5]: 2182.19 ± 137.86 Units | Serum GPT, hepatoprotective activity percent [2, 5]: (22.86 ± 5.31) percent | Serum Triglycerides [2, 5]: 14.72 ± 0.68 mg % | Serum Triglycerides, hepatoprotective activity percent [2, 5]: (28.28 ± 8.27) percent | Serum ALP [2, 6]: 46.23 ± 1.73 μmole of p-nitrophenel formed/min/L | Serum ALP, hepatoprotective activity percent [2, 6]: (34.15 ± 5.39) percent | Serum GOT [2, 6]: 880.10 ± 60.29 Units | Serum GOT, hepatoprotective activity percent [2, 6]: (41.26 ± 4.72) percent | Serum GPT [2, 6]: 1696.53 ± 48.31 Units | Serum GPT, hepatoprotective activity percent [2, 6]: (41.57 ± 1.86) percent | Serum Triglycerides [2, 6]: 13.47 ± 0.89 mg % | Serum Triglycerides, hepatoprotective activity percent [2, 6]: (43.32 ± 10.80) percent | Serum ALP [2, 7]: 41.44 ± 1.27 μmole of p-nitrophenel formed/min/L | Serum ALP, hepatoprotective activity percent [2, 7]: (49.04 ± 3.94) percent | Serum GOT [2, 7]: 619.36 ± 88.89 Units | Serum GOT, hepatoprotective activity percent [2, 7]: (61.67 ± 6.96) percent | Serum GPT [2, 7]: 1066.99 ± 118.14 Units | Serum GPT, hepatoprotective activity percent [2, 7]: (65.82 ± 4.55) percent | Serum Triglycerides [2, 7]: 12.34 ± 0.85 mg % | Serum Triglycerides, hepatoprotective activity percent [2, 7]: (56.84 ± 10.23) percent | Serum ALP [2, 8]: 35.08 ± 2.18 μmole of p-nitrophenel formed/min/L | Serum ALP, hepatoprotective activity percent [2, 8]: (68.82 ± 6.78) percent | Serum GOT [2, 8]: 310.53 ± 45.32 Units | Serum GOT, hepatoprotective activity percent [2, 8]: (85.85 ± 4.25) percent | Serum GPT [2, 8]: 539.60 ± 51.65 Units | Serum GPT, hepatoprotective activity percent [2, 8]: (86.13 ± 1.99) percent | Serum Triglycerides [2, 8]: 10.87 ± 0.69 mg % | Serum Triglycerides, hepatoprotective activity percent [2, 8]: (74.48 ± 8.37) percent | Serum ALP [2, 9]: 27.15 ± 2.92 μmole of p-nitrophenel formed/min/L | Serum GOT [2, 9]: 106.86 ± 30.15 Units | Serum GPT [2, 9]: 146.00 ± 32.15 Units | Serum Triglycerides [2, 9]: 7.77 ± 0.56 mg % | Serum ALP [3, 10]: 50.41 ± 3.07^NS μmole of p-nitophenol formed/min/L | Serum ALP, hepatoprotective activity percent [3, 10]: (21.27 ± 9.50) percent | Serum GOT [3, 10]: 1079.43 ± 98.66^NS Units | Serum GOT, hepatoprotective activity percent [3, 10]: (25.66 ± 7.72) percent | Serum GPT [3, 10]: 431.85 ± 25.52 Units | Serum GPT, hepatoprotective activity percent [3, 10]: (49.67 ± 2.81) percent | Serum Triglycerides [3, 10]: 14.72 ± 0.68^NS mg % | Serum Triglycerides, hepatoprotective activity percent [3, 10]: (28.28 ± 8.27) percent | Serum ALP ([3]; 25 mg/kg p.o. + APAP, curative): 46.23 ± 1.73 μmole of p-nitophenol formed/min/L | Serum ALP, hepatoprotective activity percent ([3]; 25 mg/kg p.o. + APAP, curative): (34.15 ± 5.39) percent | Serum GOT ([3]; 25 mg/kg p.o. + APAP, curative): 880.10 ± 60.29 Units | Serum GOT, hepatoprotective activity percent ([3]; 25 mg/kg p.o. + APAP, curative): (41.26 ± 4.72) percent | Serum GPT ([3]; 25 mg/kg p.o. + APAP, curative): 320.07 ± 41.33 Units | Serum GPT, hepatoprotective activity percent ([3]; 25 mg/kg p.o. + APAP, curative): (67.52 ± 7.71) percent | Serum Triglycerides ([3]; 25 mg/kg p.o. + APAP, curative): 13.47 ± 0.89^NS mg % | Serum Triglycerides, hepatoprotective activity percent ([3]; 25 mg/kg p.o. + APAP, curative): (43.32 ± 10.80) percent | Serum ALP ([3]; 50 mg/kg p.o. + APAP, curative): 41.44 ± 1.27 μmole of p-nitophenol formed/min/L | Serum ALP, hepatoprotective activity percent ([3]; 50 mg/kg p.o. + APAP, curative): (49.04 ± 3.94) percent | Serum GOT ([3]; 50 mg/kg p.o. + APAP, curative): 619.36 ± 88.89 Units | Serum GOT, hepatoprotective activity percent ([3]; 50 mg/kg p.o. + APAP, curative): (61.67 ± 6.96) percent | Serum GPT ([3]; 50 mg/kg p.o. + APAP, curative): 282.74 ± 32.96 Units | Serum Triglycerides ([3]; 50 mg/kg p.o. + APAP, curative): 12.34 ± 0.85 mg % | Serum Triglycerides, hepatoprotective activity percent ([3]; 50 mg/kg p.o. + APAP, curative): (56.84 ± 10.23) percent | Serum ALP [3, 11]: 35.08 ± 2.18 μmole of p-nitophenol formed/min/L | Serum ALP, hepatoprotective activity percent [3, 11]: (68.82 ± 6.78) percent | Serum GOT [3, 11]: 310.53 ± 45.32 Units | Serum GOT, hepatoprotective activity percent [3, 11]: (85.85 ± 4.25) percent | Serum GPT [3, 11]: 235.59 ± 22.77 Units | Serum GPT, hepatoprotective activity percent [3, 11]: (83.33 ± 1.99) percent | Serum Triglycerides [3, 11]: 10.87 ± 0.69 mg % | Serum Triglycerides, hepatoprotective activity percent [3, 11]: (74.48 ± 8.37) percent | Serum ALP [3, 12]: 22.57 ± 2.95 μmole of p-nitophenol formed/min/L | Serum GOT [3, 12]: 133.77 ± 20.84 Units | Serum GPT [3, 12]: 129.65 ± 24.84 Units | Serum Triglycerides [3, 12]: 7.43 ± 0.89 mg % | Zoxazolamine Hepatoprotection [4, 13]: 40.10 ± 6.55% | Zoxazolamine Paralysis time [4, 13]: 39.00 ± 1.93*^c min | Zoxazolamine Hepatoprotection [4, 14]: 51.40 ± 11.12% | Zoxazolamine Paralysis time [4, 14]: 35.66 ± 3.28**^c min | Zoxazolamine Hepatoprotection [4, 15]: 70.61 ± 7.68% | Zoxazolamine Paralysis time [4, 15]: 30.00 ± 2.26**^c min | Zoxazolamine Hepatoprotection [4, 16]: 84.17 ± 6.55% | Zoxazolamine Paralysis time [4, 16]: 26.00 ± 1.93**^c min
